Measured values: patent US5760036A, “Aminediol protease inhibitors” (E. R. Squibb & Sons, Inc., priority 1995, dated 1998)
Read-outs that look alike come from different tables or passages of the source.

Legend:
[1] = test system: RF strain of HIV (CEM-SS cells); test: Cell Culture Anti-HIV Activity (cell viability, formazan); assay type: cell-based; details: Human immunodeficiency virus 1, CEM-SS, 144 h, CEM-SS cells, RF strain of HIV, multiplicity of infection 0.04, 6 days at 37° C., 450 nm; read-out: HIV (CEM Cells) IC50
Method in brief: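 Half-log compound dilutions added to CEM-SS cells (5000/well) carrying HIV RF (MOI 0.04), 6 days, 37° C. Cell protection measured as formazan from tetrazolium, A450. IC50: drug level restoring infected-cell formazan to 50% of the uninfected untreated control.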

HIV protease = target: T1, HIV protease (Human immunodeficiency virus type 1 group M subtype B, UniProt P04585); test: HIV Protease Assay; assay type: biochemical
T1 construct: and purified protease
Method in brief: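 At a single final concentration of 10 μM (4% DMSO), inhibitors were added to a 30-minute, 37° C reaction of purified enzyme with 450 μM H2N-Val-Ser-Gln-Asn-(β-naphthyl-alanine)-Pro-Val-Ile-OH at pH 5.5 (sodium acetate, BSA). Hydrolysis was quantified by reverse-phase HPLC with 220 nm detection after acid quench.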

[2] = pH 5.5, 10 μM inhibitor, 4% DMSO, 450 μM substrate, pH 5.5, 30 minutes at 37° C., RP-HPLC, read-out: HIV Protease % Inhibition at 10 μM

Structure (SMILES)	inhibition at 10 µM (HIV protease; [2]) [%]	HIV Protease % Inhibition at 10 μM (HIV protease; 10 μM inhibitor, 4% DMSO, 450 μM substrate, pH 5.5, 30 minutes at 37° C., RP-HPLC) [%]	inhibition at 10 µM (HIV protease; pH 5.5, read-out: HIV Protease % Inhibition at 10 μM) [%]	IC50 [1] [nM]
CC(C)(C)OC(=O)N[C@@H](Cc1ccccc1)[C@H](O)CNC[C@@H](O)[C@H](Cc1ccccc1)NC(=O)OC1(C)CCC1 [Compound 160, [1S-(1R*,2S*)]-[Iminobis[2-hydroxy-1-(phenylmethyl)-3,1-propanediyl]]bis[carbamic acid], 1,1-dimethylethyl-1-methylcyclobutyl ester]	99	–	–	80
CC(C)(C)OC(=O)N[C@@H](Cc1ccccc1)[C@H](O)CNC[C@@H](O)[C@H](Cc1ccccc1)NC(=O)OC(C)(C)CCCNCc1ccccc1 [Compound 153, [1S-(1R*,2S*)]-[Iminobis[2-hydroxy-1-(phenylmethyl)-3,1-propanediyl]biscarbamic acid, 1,1-dimethylethyl 1,1-dimethyl-4-[(phenylmethyl)-amino]butyl ester]	65	–	–	> 550
CC(C)(C)OC(=O)N[C@@H](Cc1ccccc1)[C@H](O)CNC[C@@H](O)[C@H](Cc1ccccc1)NC(=O)C1NC(=O)OC1(C)C (single isomer, unassigned; isomer b) [Compound 240, [1S-[1R*,2S*(2S*,3R*)]]-[3-[[3-[[(5,5-Dimethyl-2-oxo-4-oxazolidinyl)carbonyl]amino]-2-hydroxy-4-phenylbutyl]amino]-2-hydroxy-1-(phenylmethyl)propyl]carbamic acid, 1,1-dimethylethyl ester, isomer B]	–	99	–	2000
CC(C)(C)OC(=O)N[C@@H](CCc1ccccc1)[C@H](O)CNC[C@@H](O)[C@H](Cc1ccccc1)NC(=O)OC(C)(C)C [Compound 25, [1S-[1R*,2S*(2S*,3R* )]]-[3-[[3-[[(1,1-Dimethylethoxy)carbonyl]amino]-2-hydroxy-4-phenylbutyl]amino]-2-hydroxy-1-(2-phenylethyl))propyl]carbarmic acid, 1,1-dimethylethyl ester]	–	–	98	530
CC(C)[C@H](NC(=O)OCc1ccccc1)C(=O)N[C@@H](Cc1ccccc1)[C@H](O)CNC[C@@H](O)[C@H](Cc1ccccc1)NC(=O)[C@@H](NC(=O)OCc1ccccc1)C(C)C [Compound 42, [1S-(1R*,2S*)]-N,N'-[Iminobis[2-hydroxy-1-(phenylmethyl)-3,1-proanediyl]bis[N^2-[(phenylmethoxy)carbonyl]-L-valinamide]]	100	–	–	600
CC(C)(C)OC(=O)N[C@@H](Cc1ccccc1)[C@H](O)CNC[C@@H](O)[C@H](Cc1ccccc1)NC(=O)C(C)(O)C(F)(F)F (single isomer, unassigned; isomer a) [Compound 293, [1S-[1R*,2S*(2S*,3R*)]]-[2-Hydroxy-3-[2-hydroxy-1-oxo-2-(trifluoromethyl)-propyl]amino]-4-phenylbutyl]amino]-1-(phenylmethyl)propyl]carbamic acid, 1,1-dimethylethylester (isomer A)]	99	–	–	30

Further lines, with some results ahead:

inhibition at 10 µM (HIV protease; [2]) [%]	HIV Protease % Inhibition at 10 μM (HIV protease; 10 μM inhibitor, 4% DMSO, 450 μM substrate, pH 5.5, 30 minutes at 37° C., RP-HPLC) [%]	inhibition at 10 µM (HIV protease; pH 5.5, read-out: HIV Protease % Inhibition at 10 μM) [%]	Structure (SMILES)	IC50 [1] [nM]
99	–	–	CC(C)(C)OC(=O)N[C@@H](Cc1ccccc1)[C@H](O)CNC[C@@H](O)[C@H](Cc1ccccc1)NC(=O)[C@@H](NC(=O)OCCOCc1ccccc1)C(C)(C)C [Compound 351, [S-[1R*,2S*(2S*,3R*)]]-[2,2-Dimethyl-1-[[[3-[[3-[[(1,1-dimethyl-ethoxy)carbonyl]amino]-2hydroxy-4-phenylbutyl]amino-2-hydroxy-1-(phenylmethyll)-propyl]amino]carbonyl]propyl]carbamic acid, 2-(phenylmethoxy)ethyl ester]	80
97	–	–	CC(C)(C)OC(=O)N[C@@H](Cc1ccccc1)[C@H](O)CNC[C@@H](O)[C@H](Cc1ccncc1)NC(=O)OC(C)(C)C [Compound 30, [1S-[1R*,2S*(2S*,3R*)]]-[3-[[3-[[(1,1-Dimethylethoxy)-carbonyl]amino]-2-hydroxy-4-phenylbutyl]amino]-2-hydroxy-1-(4-pyridinylmethyl)propyl]carbamic acid, 1,1-dimethylethyl ester]	500
99	–	–	CC(C)(C)OC(=O)N[C@@H](Cc1ccccc1)[C@H](O)CNC[C@@H](O)[C@H](Cc1ccc(OCCN2CCOCC2)cc1)NC(=O)OC(C)(C)C [Compound 175, [1S-[1R*,2S*(2S*,3R*)]]-[3-[[3-[[(1,1-Dimethylethoxy)carbonyl]amino]-2-hydroxy-4-(4-[2-(4-morpholinyl)ethoxyl-phenyl]butyl]amino]-2-hydroxy-1-(phenylmethyl)propyl]carbamic acid, 1,1-dimethylethyl ester]	30
99	–	–	COC(=O)N[C@H](C(=O)N[C@@H](Cc1ccc(OCC(=O)N2CCOCC2)cc1)[C@H](O)CNC[C@@H](O)[C@H](Cc1ccccc1)NC(=O)OC(C)(C)C)C(C)(C)C (relative stereo) [Compound 341, [1R*,2S*(2S*,3R*)]-N-[3-[[3-[[(1,1-Dimethylethoxy)carbonyl]amino]-2-hydroxy-4-phenylbutyl]amino]-2-hydroxy-1-[[4-[2-(4-morpholinyl)-2-oxoethoxy]phenyl]methyl]propyl]-N^2-(2-methoxycarbonyl)-3-methyl-L-valinamide]	2100
